“Also recorded” adds a separate entry of the source. Where two headings read alike, the source gives them in different places.
Experiments:
CYP2C9 = CYP2C9 (Homo sapiens, UniProt P11712); assay: In vitro P450 inhibition, recombinant CYP2C9; type: in vitro ADME
CYP3A4 = CYP3A4 (Homo sapiens, UniProt P08684); type: in vitro ADME
BCRP = target: T1, BCRP (Homo sapiens, UniProt Q9UNQ0); assay: BCRP vesicular transport inhibition assay; type: in vitro ADME
T1 sequence (Q9UNQ0 1-655): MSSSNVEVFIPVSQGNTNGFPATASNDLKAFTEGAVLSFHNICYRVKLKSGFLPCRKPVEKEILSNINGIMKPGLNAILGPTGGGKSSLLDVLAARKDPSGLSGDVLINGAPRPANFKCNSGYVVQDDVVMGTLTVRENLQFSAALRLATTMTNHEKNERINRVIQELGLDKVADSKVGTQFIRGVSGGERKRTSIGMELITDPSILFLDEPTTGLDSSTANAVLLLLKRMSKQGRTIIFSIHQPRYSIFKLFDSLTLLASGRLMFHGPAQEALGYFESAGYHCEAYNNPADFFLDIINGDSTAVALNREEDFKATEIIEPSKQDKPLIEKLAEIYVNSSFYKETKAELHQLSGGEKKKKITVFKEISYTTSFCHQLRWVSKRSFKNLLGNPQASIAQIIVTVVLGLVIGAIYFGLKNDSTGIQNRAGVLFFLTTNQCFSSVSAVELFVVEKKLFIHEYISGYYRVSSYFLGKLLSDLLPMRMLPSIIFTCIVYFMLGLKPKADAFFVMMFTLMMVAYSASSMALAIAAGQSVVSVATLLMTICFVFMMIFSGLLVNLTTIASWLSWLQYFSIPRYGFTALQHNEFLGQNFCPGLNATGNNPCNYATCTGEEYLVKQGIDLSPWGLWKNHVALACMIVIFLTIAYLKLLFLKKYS

MDR1 [1] = target: T2, MDR1 (Homo sapiens, UniProt P08183); assay: MDR1 vesicular transport inhibition assay; type: in vitro ADME
MATE2-K = MATE2-K (Homo sapiens, UniProt Q86VL8); assay: MATE2-K uptake inhibition assay; type: in vitro ADME; conditions: at 40 µM
OAT1 = target: T3, OAT1 (Homo sapiens, UniProt Q4U2R8); assay: OAT1 uptake inhibition assay; type: in vitro ADME; conditions: 0.63–40 μM
T3 sequence (Q4U2R8 1-563): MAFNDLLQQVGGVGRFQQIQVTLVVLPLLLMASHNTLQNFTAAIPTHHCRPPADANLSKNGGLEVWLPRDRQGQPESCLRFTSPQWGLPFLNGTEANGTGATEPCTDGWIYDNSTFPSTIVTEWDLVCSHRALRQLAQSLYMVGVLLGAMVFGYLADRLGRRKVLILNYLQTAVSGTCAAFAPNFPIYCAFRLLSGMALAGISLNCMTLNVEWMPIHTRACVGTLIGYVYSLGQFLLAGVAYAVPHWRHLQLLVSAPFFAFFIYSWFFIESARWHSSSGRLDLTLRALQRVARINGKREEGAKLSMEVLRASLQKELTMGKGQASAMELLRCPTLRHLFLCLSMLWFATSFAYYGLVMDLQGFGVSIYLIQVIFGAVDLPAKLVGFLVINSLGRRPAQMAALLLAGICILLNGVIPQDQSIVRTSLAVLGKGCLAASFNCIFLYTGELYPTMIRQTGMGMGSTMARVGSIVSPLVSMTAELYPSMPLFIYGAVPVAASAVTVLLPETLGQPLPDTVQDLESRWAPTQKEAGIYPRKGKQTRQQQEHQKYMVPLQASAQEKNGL

OCT2 = target: T4, OCT2 (Homo sapiens, UniProt O15244); assay: OCT2 uptake inhibition assay; type: in vitro ADME; conditions: 0.63–40 μM
T4 sequence (O15244 1-555): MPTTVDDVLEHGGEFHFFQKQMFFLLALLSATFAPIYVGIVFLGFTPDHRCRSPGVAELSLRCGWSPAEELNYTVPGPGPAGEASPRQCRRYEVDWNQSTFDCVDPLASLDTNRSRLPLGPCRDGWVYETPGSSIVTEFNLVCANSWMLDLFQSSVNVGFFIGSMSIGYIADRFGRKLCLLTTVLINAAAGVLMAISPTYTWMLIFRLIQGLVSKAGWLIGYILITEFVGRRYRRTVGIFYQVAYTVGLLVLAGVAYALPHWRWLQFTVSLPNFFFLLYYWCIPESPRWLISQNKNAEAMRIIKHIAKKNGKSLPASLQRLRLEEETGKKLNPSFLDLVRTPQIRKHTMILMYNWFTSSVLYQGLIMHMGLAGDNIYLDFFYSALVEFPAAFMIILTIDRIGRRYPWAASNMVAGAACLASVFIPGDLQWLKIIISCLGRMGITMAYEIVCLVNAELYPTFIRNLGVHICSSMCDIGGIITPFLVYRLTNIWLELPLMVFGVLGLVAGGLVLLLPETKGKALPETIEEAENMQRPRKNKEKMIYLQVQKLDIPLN

MDR1 [2] = target: T2, MDR1; assay: MDR1 monolayer substrate assay; type: in vitro ADME
[3] = Phase 1 clinical drug–drug interaction study, safety assessment; type: in vivo, human
CYP1A2 = conditions: ocedurenone at 0.1, 1, or 10 μM, 72 h; inducer criterion 40%
[4] = 0.5 to 30 mg administered orally; cited from earlier work
[5] = first vesicular transport run, 40 µM
[6] = Cohort 2, 12 subjects, mild in severity
[7] = rifampin cohort, 12 participants

CYP3A4, sequence (P08684 whole entry): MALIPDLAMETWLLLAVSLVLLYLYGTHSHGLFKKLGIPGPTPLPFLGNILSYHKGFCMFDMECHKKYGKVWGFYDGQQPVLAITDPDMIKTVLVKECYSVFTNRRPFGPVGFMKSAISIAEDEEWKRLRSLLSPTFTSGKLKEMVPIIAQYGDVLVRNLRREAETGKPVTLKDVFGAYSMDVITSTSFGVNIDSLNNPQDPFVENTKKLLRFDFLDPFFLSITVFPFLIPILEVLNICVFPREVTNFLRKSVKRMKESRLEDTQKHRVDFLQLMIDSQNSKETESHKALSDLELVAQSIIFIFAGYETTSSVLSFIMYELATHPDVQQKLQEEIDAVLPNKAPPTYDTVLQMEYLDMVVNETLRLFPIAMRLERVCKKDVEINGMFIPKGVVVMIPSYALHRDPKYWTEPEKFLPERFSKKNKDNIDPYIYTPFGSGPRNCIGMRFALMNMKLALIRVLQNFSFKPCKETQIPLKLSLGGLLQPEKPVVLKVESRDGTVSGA
T2 sequence (P08183 whole entry): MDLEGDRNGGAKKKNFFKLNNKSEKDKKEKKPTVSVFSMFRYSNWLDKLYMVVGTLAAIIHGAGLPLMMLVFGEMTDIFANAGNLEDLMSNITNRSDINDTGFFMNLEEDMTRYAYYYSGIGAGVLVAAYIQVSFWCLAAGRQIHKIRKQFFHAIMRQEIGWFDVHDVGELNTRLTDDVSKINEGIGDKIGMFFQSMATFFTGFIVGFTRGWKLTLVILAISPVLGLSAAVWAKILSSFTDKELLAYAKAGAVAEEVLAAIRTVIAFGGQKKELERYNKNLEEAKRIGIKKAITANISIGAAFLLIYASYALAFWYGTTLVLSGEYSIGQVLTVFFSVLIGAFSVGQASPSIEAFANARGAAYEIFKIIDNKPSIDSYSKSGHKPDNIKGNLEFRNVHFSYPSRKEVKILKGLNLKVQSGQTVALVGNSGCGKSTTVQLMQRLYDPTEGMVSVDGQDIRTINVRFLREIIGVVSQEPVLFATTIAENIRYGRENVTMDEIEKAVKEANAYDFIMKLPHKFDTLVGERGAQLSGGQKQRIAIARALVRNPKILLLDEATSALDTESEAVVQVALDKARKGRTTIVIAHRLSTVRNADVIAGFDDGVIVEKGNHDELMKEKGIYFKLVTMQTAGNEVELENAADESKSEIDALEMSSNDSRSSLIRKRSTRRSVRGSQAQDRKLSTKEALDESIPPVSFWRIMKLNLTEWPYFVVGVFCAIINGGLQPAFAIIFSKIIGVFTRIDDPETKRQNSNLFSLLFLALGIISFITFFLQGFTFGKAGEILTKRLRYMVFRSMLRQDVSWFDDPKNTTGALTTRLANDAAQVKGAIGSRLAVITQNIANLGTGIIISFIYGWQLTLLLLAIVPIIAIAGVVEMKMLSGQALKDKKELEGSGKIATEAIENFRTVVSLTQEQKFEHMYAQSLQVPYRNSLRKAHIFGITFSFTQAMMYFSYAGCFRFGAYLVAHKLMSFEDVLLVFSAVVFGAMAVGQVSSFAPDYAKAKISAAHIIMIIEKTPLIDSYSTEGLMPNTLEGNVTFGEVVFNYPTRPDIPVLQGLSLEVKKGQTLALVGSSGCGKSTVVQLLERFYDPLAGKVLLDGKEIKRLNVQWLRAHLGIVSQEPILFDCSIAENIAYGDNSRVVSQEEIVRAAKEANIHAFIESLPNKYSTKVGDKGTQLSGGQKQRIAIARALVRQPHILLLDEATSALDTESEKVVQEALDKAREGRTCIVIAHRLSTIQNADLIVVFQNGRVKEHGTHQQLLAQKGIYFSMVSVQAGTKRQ
CYP2C9, sequence (P11712 whole entry): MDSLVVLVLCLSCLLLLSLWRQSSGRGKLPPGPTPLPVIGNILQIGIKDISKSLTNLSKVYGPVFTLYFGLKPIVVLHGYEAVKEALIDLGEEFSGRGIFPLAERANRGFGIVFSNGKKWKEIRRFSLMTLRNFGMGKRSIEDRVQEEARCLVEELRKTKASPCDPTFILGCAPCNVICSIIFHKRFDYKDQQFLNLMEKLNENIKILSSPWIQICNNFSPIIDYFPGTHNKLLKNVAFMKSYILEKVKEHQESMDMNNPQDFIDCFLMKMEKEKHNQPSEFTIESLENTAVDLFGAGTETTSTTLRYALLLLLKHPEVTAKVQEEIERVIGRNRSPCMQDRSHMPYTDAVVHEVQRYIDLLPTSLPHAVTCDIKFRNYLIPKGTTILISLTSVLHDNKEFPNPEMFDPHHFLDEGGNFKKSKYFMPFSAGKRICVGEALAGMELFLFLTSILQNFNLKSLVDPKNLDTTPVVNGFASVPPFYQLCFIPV
MATE2-K, sequence (Q86VL8 1-566 isoform Q86VL8-3): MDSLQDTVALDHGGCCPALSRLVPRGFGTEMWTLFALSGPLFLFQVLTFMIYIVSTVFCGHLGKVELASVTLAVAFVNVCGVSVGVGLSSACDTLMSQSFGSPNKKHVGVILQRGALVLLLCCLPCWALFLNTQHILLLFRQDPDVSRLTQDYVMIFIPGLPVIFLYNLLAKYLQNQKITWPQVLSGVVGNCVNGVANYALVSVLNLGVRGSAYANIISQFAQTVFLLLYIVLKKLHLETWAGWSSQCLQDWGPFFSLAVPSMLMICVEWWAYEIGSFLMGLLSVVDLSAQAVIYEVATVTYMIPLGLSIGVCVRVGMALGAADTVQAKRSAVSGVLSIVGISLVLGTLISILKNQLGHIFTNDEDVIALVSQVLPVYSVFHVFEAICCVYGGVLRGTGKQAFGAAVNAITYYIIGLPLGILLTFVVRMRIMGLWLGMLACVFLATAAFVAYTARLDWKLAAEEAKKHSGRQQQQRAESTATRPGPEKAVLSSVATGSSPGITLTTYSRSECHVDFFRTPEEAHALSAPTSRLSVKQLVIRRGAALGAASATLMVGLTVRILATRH

For N#Cc1ccc(N2N=C3c4ccc(C(=O)N5CCC(O)CC5)nc4CC[C@@H]3[C@@H]2C2CCCC2)cc1Cl [Ocedurenone, ocedurenone], the “percent remaining activity of CYP2C9” value (CYP2C9; ocedurenone at 200 μM) was 70.2%, the IC50 (CYP2C9; read-out: IC50 CYP2C9, recombinant CYP) was > 200 µM and the “inhibition category CYP2C9” value (CYP2C9; recombinant enzyme) was “little or no inhibition”. For the same compound, the “percent remaining activity of CYP3A4 (midazolam-based)” value (CYP3A4; ocedurenone at 200 μM, midazolam probe) was 70.2%, the “percent remaining activity of CYP3A4 (testosterone-based)” value (CYP3A4; ocedurenone at 200 μM, testosterone probe) was 68.1% and the IC50 (CYP3A4; read-out: IC50 CYP3A4 (midazolam-based), midazolam probe) was > 200 µM. The IC50 (CYP3A4; read-out: IC50 CYP3A4 (testosterone-based), testosterone probe) was > 200 µM, the “inhibition category CYP3A4” value (CYP3A4; recombinant enzyme) was “little or no inhibition” and the “inhibition of BCRP at 40 µM” value (BCRP; [5]) was 98%. For the same compound, the “maximum inhibition of BCRP-mediated transport” value (BCRP; repeat with 7 concentrations, at 40 µm) was 98%, the “inhibition of MDR1 at 40 µM” value (MDR1 [1]; [5]) was 99% and the IC50 (MDR1 [1]; read-out: Inhibition results (IC50), MDR1 VT, probe NMQ (1 µm)) was 2.5 µM. For the same compound, the “maximum inhibition of MDR1-mediated transport” value (MDR1 [1]; repeat with 7 concentrations) was 100%, the “maximum inhibition of MATE2-K-mediated probe substrate accumulation” value (MATE2-K) was 79% and the “interaction with human OAT1 transporter (inhibition)” value (OAT1) was “No interaction”. For the same compound, the “interaction with human OCT2 transporter (inhibition)” value (OCT2) was “No interaction”, the “Substrate, MDR1 ML” value (MDR1 [2]) was “likely a substrate” and the “treatment-emergent AEs considered related to ocedurenone” value ([3]; Cohort 1 (itraconazole cohort), 12 subjects) was “No treatment-emergent AEs; also recorded: no treatment-emergent adverse events”. The “number of treatment-emergent AEs considered related to the drug” value [3, 6] was 5, the “subjects with treatment-emergent AEs considered related to the drug” value [3, 6] was 25.0% and the “participants with headache (TEAE related to ocedurenone)” value [3, 7] was 16.7%. The “participants with hyperhidrosis (TEAE related to ocedurenone)” value [3, 7] was 8.3%, the “participants with nausea (TEAE related to ocedurenone)” value [3, 7] was 8.3% and the “participants with nervousness (TEAE related to ocedurenone)” value [3, 7] was 8.3%. The tolerability ([3]; single 0.5-mg dose alone and with itraconazole or rifampin, healthy participants) was “safe and well-tolerated”, the “percent CYP1A2 induction (of positive control)” value (CYP1A2) was “lower than 40%” and the “safety and tolerability, single ascending dose” value [4] was “safe and well-tolerated”.
